Data from ChEMBL document CHEMBL1126404, “A novel approach to the site specific delivery of potential HMG-CoA reductase inhibitors” (Bioorg Med Chem Lett, 1992).

Tests used:
[1] = target: T1, 3-hydroxy-3-methylglutaryl-coenzyme A reductase (Rattus norvegicus) (UniProt P51639); experiment: The compound was evaluated for Inhibition of rat hepatic microsomal HMG-CoA reductase at log concentration of ~-5/M.
T1 sequence (whole entry): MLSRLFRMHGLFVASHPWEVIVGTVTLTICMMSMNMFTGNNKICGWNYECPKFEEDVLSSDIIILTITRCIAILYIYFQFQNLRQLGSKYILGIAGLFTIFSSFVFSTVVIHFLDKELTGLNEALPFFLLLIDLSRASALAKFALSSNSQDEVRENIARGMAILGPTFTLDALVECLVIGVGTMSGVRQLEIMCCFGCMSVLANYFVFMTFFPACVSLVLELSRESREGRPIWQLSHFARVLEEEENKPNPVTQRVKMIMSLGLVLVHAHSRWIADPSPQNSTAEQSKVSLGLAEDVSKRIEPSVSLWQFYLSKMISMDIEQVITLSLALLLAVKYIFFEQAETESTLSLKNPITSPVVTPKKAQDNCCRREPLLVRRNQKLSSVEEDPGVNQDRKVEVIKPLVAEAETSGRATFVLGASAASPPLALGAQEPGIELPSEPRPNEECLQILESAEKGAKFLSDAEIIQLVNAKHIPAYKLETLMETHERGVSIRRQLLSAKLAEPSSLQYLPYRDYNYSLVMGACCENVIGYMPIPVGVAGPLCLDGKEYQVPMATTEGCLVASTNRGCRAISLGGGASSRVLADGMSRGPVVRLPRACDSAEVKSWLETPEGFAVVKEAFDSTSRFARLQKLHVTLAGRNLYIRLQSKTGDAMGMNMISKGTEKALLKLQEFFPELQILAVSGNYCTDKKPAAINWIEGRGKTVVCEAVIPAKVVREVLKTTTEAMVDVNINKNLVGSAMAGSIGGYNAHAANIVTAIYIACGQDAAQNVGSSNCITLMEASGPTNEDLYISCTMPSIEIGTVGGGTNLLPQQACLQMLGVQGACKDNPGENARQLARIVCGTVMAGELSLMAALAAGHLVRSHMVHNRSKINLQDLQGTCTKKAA

[2] = target: T1, 3-hydroxy-3-methylglutaryl-coenzyme A reductase (Rattus norvegicus); experiment: The compound was evaluated for Inhibition of rat hepatic microsomal HMG-CoA reductase at log concentration of ~-8/M
[3] = target: T1, 3-hydroxy-3-methylglutaryl-coenzyme A reductase (Rattus norvegicus); experiment: The compound was evaluated for Inhibition of rat hepatic microsomal HMG-CoA reductase at log concentration of ~-4/M.
[4] = target: T1, 3-hydroxy-3-methylglutaryl-coenzyme A reductase (Rattus norvegicus); experiment: The compound was evaluated for Inhibition of rat hepatic microsomal HMG-CoA reductase at log concentration of ~-7/M.
[5] = target: T1, 3-hydroxy-3-methylglutaryl-coenzyme A reductase (Rattus norvegicus); experiment: The compound was evaluated for Inhibition of rat hepatic microsomal HMG-CoA reductase at log concentration of ~-6/M.
[6] = target: T2, 3-hydroxy-3-methylglutaryl-coenzyme A reductase (Rattus norvegicus, UniProt P51639); experiment: The compound was evaluated for Inhibition of rat hepatic microsomal HMG-CoA reductase.
T2 sequence (P51639 whole entry): T1 sequence (whole entry)

[7] = target: T1, 3-hydroxy-3-methylglutaryl-coenzyme A reductase (Rattus norvegicus)
Description: The compound was evaluated for Inhibition of rat hepatic microsomal HMG-CoA reductase at log concentration of ~-11/M

[8] = target: T1, 3-hydroxy-3-methylglutaryl-coenzyme A reductase (Rattus norvegicus); remark: listed apart in the source
Description: The compound was evaluated for Inhibition of rat hepatic microsomal HMG-CoA reductase at log concentration of ~-9/M.

[9] = target: T1, 3-hydroxy-3-methylglutaryl-coenzyme A reductase (Rattus norvegicus); remark: listed apart in the source
Description: The compound was evaluated for Inhibition of rat hepatic microsomal HMG-CoA reductase at log concentration of ~-10/M.

[10] = target: T1, 3-hydroxy-3-methylglutaryl-coenzyme A reductase (Rattus norvegicus); experiment: The compound was evaluated for Inhibition of rat hepatic microsomal HMG-CoA reductase at log concentration of ~-3/M
[11] = target: T1, 3-hydroxy-3-methylglutaryl-coenzyme A reductase (Rattus norvegicus); experiment: The compound was evaluated for Inhibition of rat hepatic microsomal HMG-CoA reductase at log concentration of ~-6/M
[12] = target: T1, 3-hydroxy-3-methylglutaryl-coenzyme A reductase (Rattus norvegicus); experiment: The compound was evaluated for Inhibition of rat hepatic microsomal HMG-CoA reductase at log concentration of ~-4/M
[13] = target: T1, 3-hydroxy-3-methylglutaryl-coenzyme A reductase (Rattus norvegicus); experiment: The compound was evaluated for Inhibition of rat hepatic microsomal HMG-CoA reductase at log concentration of ~-5/M
[14] = target: T1, 3-hydroxy-3-methylglutaryl-coenzyme A reductase (Rattus norvegicus); experiment: The compound was evaluated for Inhibition of rat hepatic microsomal HMG-CoA reductase at log concentration of ~-8/M.
[15] = target: T1, 3-hydroxy-3-methylglutaryl-coenzyme A reductase (Rattus norvegicus); experiment: The compound was evaluated for Inhibition of rat hepatic microsomal HMG-CoA reductase at log concentration of ~-3/M.

Row | Activity (nM min-1 mg-1) [1] | Activity (nM min-1 mg-1) [2] | Activity (nM min-1 mg-1) [3] | Activity (nM min-1 mg-1) [4] | Activity (nM min-1 mg-1) [5] | IC50 [6] [µM] | Activity (nM min-1 mg-1) [7] | Activity (nM min-1 mg-1) [8] | Activity (nM min-1 mg-1) [9] | Activity (nM min-1 mg-1) [10] | Activity (nM min-1 mg-1) [11] | Activity (nM min-1 mg-1) [12] | Activity (nM min-1 mg-1) [13] | Activity (nM min-1 mg-1) [14] | Activity (nM min-1 mg-1) [15] | Compound
1 | 30 | 280 | 0 | 270 | 150 | 12.3 |  |  |  |  |  |  |  |  |  | C[C@H](CC(O)CC(O)CC(=O)O)[C@H]1CC[C@H]2[C@@H]3[C@H](O)C[C@@H]4C[C@H](O)CC[C@]4(C)[C@H]3C[C@H](OC(=O)C(C)(C)C)[C@]12C (some centres not stated)
2 |  |  |  |  | 0 |  | 280 | 240 | 280 |  |  |  |  |  |  | CC[C@@H](C)C(=O)O[C@H]1C[C@@H](C)C=C2C=C[C@H](C)[C@H](CC[C@@H](O)C[C@@H](O)CC(=O)O)[C@H]21
3 |  | 300 |  |  |  | 39.2 |  |  |  | 0 | 280 | 80 | 240 |  |  | CC(=O)O[C@@H]1CC[C@@]2(C)[C@@H](C1)C[C@@H](OC(C)=O)[C@@H]1[C@@H]2C[C@H](OC(C)=O)[C@]2(C)[C@@H]([C@H](C)CC(O)CC(O)CC(=O)O)CC[C@@H]12 (some centres not stated)
4 | 290 |  | 290 | 290 | 300 |  |  |  |  |  |  |  |  | 280 | 250 | COC(=O)CC(=O)CC(O)C[C@@H](C)[C@H]1CC[C@H]2[C@@H]3[C@H](OC(C)=O)C[C@@H]4C[C@H](OC(C)=O)CC[C@]4(C)[C@H]3C[C@H](OC(C)=O)[C@]12C (some centres not stated)
